Reference: patent publication US12281332B2, “Methods of enhancing development of renal organoids and methods of using the same” (President and Fellows of Harvard College, priority 2017, dated 2025)
“Also recorded” adds a separate entry of the source.

What was measured:
Format in all cases: cell-based, human
kidney organoids [1] = test: Abundance of vasculature in kidney organoids, PECAM1/CD31 immunostaining and Angiotool; conditions: for effect on vasculature formation / vascular growth (summary of studies): FBS 1.5 to 2%; for effect on the CD31+ population of cells (extent and abundance of vasculature): developing organoids age 11-14 Days, additives in advanced RPMI, static and perfused conditions; for vessel % area: high FSS, endogenous VEGF vs VEGF addition vs VEGF inhibition
Description: Methods: To determine effects of chemical additives on the developing developing organoids, the vesicles (age 11, 12, 13 and 14 Days) were treated with VEGF additives, GMEC media, PMA additives, antibiotics, or FBS or FCS additives and other components in advanced RPMI media as a base in both static and perfused conditions. The extent and abundance of vasculature was studied using immunostaining.
Confocal Z-stacks of PECAM1 were taken of fixed whole mount organoids, both iPSC and ESC derived, in the various culture conditions. The Z-stacks were taken at the limit of the confocal depth with each sample, roughly […] per sample which represents approximately the same volume per organoid analyzed. Those z-stacks were then flattened using ImageJ to a 2D max intensity projection (as required by the Angiotool for input). The default settings were employed on the Angiotool for analysis and vessel diameters of 4, 7, 10, and 14 were analyzed for each organoid. In all cases, the whole organoid was used for analysis.

[2] = system: PODXL+ glomeruli-like compartments of kidney organoids; test: Vascular invasion of PODXL+ podocyte clusters in kidney organoids on chip, confocal imaging; conditions: high FSS, 10 days on chip; bevacizumab, VEGF 100 ng/mL
Description: Glomerular structures of kidney organoids in static culture are largely avascular. Upon animal transplantation, host-derived vascularization of kidney organoids Promotes glomerular vascularization. To determine whether FSS-induced vascularization of organoids in vitro extends to glomerular compartments, PODXL^+ podocyte clusters invaded by MCAMI^+ PECAM1^+ vascular structures were quantified using confocal imaging, in static and high FSS conditions (FIG. 18A and FIG. 18B). […] Given that there is significant upregulation of VEGF-A expression with high FSS (FIG. 18C), organoids cultured under flow can be used to study the role of VEGF in glomerular vascularization in vitro.
As vessel % area is unchanged between endogenous VEGF, VEGF addition, and VEGF inhibition, the difference in glomerular vascularization cannot be attributed to increased abundance of vasculature alone. Meanwhile, the reduced junctional density and increased average vessel length in unperturbed VEGF conditions may be interpreted as vessels growing towards an endogenous VEGF gradient versus more random sporadic growth in the absence of a gradient. Growing with the endogenous VEGF gradient under high flow conditions may allow vessels to reach glomeruli-like compartments in time to invade rather than wrap Bowman's capsule-like structures. […]

kidney organoids [3] = test: Association of PECAM1+ vasculature with LTL+ tubules, Imaris analysis; conditions: for vasculotubular association (percent of vasculature surface area overlapping with LTL+ tubules): 10 days of high flow culture, VEGF 100 ng/mL or VEGF inhibitor in the media
Description: Additionally, enhanced PECAM1^+ networks under high FSS associate with tubular structures in both transverse and longitudinal orientations (FIG. 16(d) and FIG. 17). The researchers quantified the association between PECAM1^+ networks and LTL^+tubules using Imaris surface rendering, distance transformation, and masking tools and reveal that under high flow conditions the percent of vascular surface area in contact with tubules is increased nearly 3 fold in comparison to organoids in static culture (FIG. 17(d)).
Confocal Z-stacks of PECAM1 and LTL were taken of fixed whole mount organoids, both iPSC and ESC derived, in the various culture conditions. The Z-stacks were taken at the limit of the confocal depth with each sample, roughly […] per sample which represents approximately the same volume per organoid analyzed. Those z-stacks were then opened in Imaris imaging software. The confocal 3D rendering was turned into a vascular surface and a tubule surface. Then the Imaris surface on surface area contact tool was used to quantify the percent overlap between the vascular and tubular surfaces in 3D, values were reported in FIG. 17(d). In order to assess the average distance the vasculature was away from a tubule, first an Imaris distance transformation was performed on the tubule surface. Then the resulting channel was masked by the vascular surface to create a new masked distance transformation channel. That masked distance transformation channel was opened in Fiji (ImageJ) to retrieve a histogram of all the 3D points, from which we obtained a geometric mean for each sample which is reported in FIG. 17(c).

| Compound | effect on vasculature formation / vascular growth (summary of studies) (kidney organoids [1]) | effect on the CD31+ population of cells (extent and abundance of vasculature) (kidney organoids [1]) | incidence of invasion of PODXL+ glomeruli-like compartments by PECAM1+MCAM+ vascular networks [2] | vasculotubular association (percent of vasculature surface area overlapping with LTL+ tubules) (kidney organoids [3]) | vessel % area (kidney organoids [1]) | average distance in 3D between the vasculature and the tubules (kidney organoids [3]; high flow+VEGF compared with static) | outgrowth of endothelial-like cells (kidney organoids [1]; addition of VEGF) | vascular abundance (kidney organoids [1]; culture under FSS, VEGF added in the media) | vascular abundance (kidney organoids [1]; static culture, exogenous VEGF) |
| --- | --- | --- | --- | --- | --- | --- | --- | --- | --- |
| CCCCCCCCCCCCCC(=O)O[C@@H]1[C@@H](C)[C@@]2(O)[C@@H](C=C(CO)C[C@]3(O)C(=O)C(C)=C[C@@H]23)[C@@H]2C(C)(C)[C@]12OC(C)=O [PMA, reference compound] | did not help | no measureable effects | – | – | – | – | – | – | – |
| bevacizumab [reference compound] | – | – | significantly reduced | decouples these associations and returns values consistent with static culture levels; also recorded: negated | unchanged | – | – | – | – |
| vascular endothelial growth factor [VEGF] | did not help | no measureable effects | significantly reduced | decouples these associations and returns values consistent with static culture levels; also recorded: negated | unchanged | not statistically significantly different | robust outgrowth of endothelial-like cells | didn't change | did increase |
